According to patent US6525001B1, “Substituted pyrimidine and pyridine herbicides” (Mid-American Commercialization Corporation, priority 1997, dated 2003):

Columns and labels:
Format in all cases: in vivo
Parameters in all cases: key: 0 is no effect; 10 is complete control
[1] = system: velvetleaf (Abutilon theophrasti); assay: Test B pre-/postemergence
Outline: (§1)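 Seeds were planted and sprayed preemergence, while plants at 2 to 18 cm (1- to 4-leaf stage) were sprayed postemergence at the same time, with test chemical in a non-phytotoxic solvent mixture containing surfactant. After twelve to sixteen days in a greenhouse, injury was rated visually against untreated controls on a 0–10 scale.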

[2] = system: purple nutsedge (Cyperus rotundus); assay: Test B pre-/postemergence
Outline: as §1

[3] = system: giant foxtail (Setaria faberii); assay: Test B pre-/postemergence
Outline: as §1

[4] = system: blackgrass (Alopecurus myosuroides); assay: Test B pre-/postemergence; conditions: for Blackgrass plant response rating: Preemergence
Outline: as §1

[5] = system: wheat (Triticum aestivum); assay: Test B pre-/postemergence
Outline: as §1

[6] = system: corn (Zea mays); assay: Test B pre-/postemergence; conditions: for Corn plant response rating: Preemergence
Outline: as §1

[7] = system: sugar beet (Beta vulgaris); assay: Test B pre-/postemergence
Outline: as §1

[8] = system: bedstraw (Galium aparine); assay: Test B pre-/postemergence; conditions: for Bedstraw plant response rating: Preemergence
Outline: as §1

[9] = system: broadleaf signalgrass (Brachiaria decumbens); assay: Test B pre-/postemergence; conditions: for B. signalgrass plant response rating: Preemergence
Outline: as §1

[10] = system: cocklebur (Xanthium strumarium); assay: Test B pre-/postemergence; conditions: for Cocklebur plant response rating: Preemergence
Outline: as §1

[11] = system: rape (Brassica napus); assay: Test B pre-/postemergence
Outline: as §1

[12] = system: wild oat (Avena fatua); assay: Test B pre-/postemergence
Outline: as §1

[13] = system: crabgrass (Digitaria sanguinalis); assay: Test B pre-/postemergence; conditions: for Crabgrass plant response rating: Preemergence
Outline: as §1

[14] = system: pigweed (Amaranthus retroflexus); assay: Test B pre-/postemergence
Outline: as §1

[15] = system: momingglory (Ipomoea hederacea); assay: Test B pre-/postemergence
Outline: as §1

[16] = system: soybean (Glycine max); assay: Test B pre-/postemergence
Outline: as §1

[17] = system: bamyardgrass (Echinochloa crus-galli); assay: Test B flood test
Outline: (§2)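 Plants were grown to the 2-leaf stage before treatment with test chemical, then held in a greenhouse for twelve to sixteen days. Injury was visually rated against untreated controls on a 0–10 scale, where 0 is no effect and 10 is complete control.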

[18] = system: duck salad (Heteranthera limosa); assay: Test B flood test
Outline: as §2

[19] = system: smallflower flatsedge (Cyperus difformis); assay: Test B flood test
Outline: as §2

[20] = system: rice (Oryza sativa); assay: Test B flood test
Outline: as §2

[21] = Rate 250 g/ha, Postemergence (so in the source)
[22] = Rate 62 g/ha, Postemergence (flood test)
[23] = Rate 125 g/ha, Postemergence, flood test
[24] = Rate 250 g/ha, Postemergence (flood test species)
[25] = Rate 125 g/ha, Postemergence section (flood test species)

## Cc1cnc(-c2cccc(C(F)(F)F)c2)nc1Cc1cccc(C#N)c1 [Compound 39]
[1]; Rate 62 g/ha, Postemergence
  Plant response rating, Velvetleaf: 0
[1]; Rate 62 g/ha, Preemergence
  Velvetleaf plant response rating: 0
[1]; Rate 125 g/ha, Postemergence
  Velvetleaf plant response rating: 1
[1]; Rate 125 g/ha, Preemergence
  Plant response rating, Velvetleaf: 0
[1]; Rate 250 g/ha, Postemergence
  Plant response rating, Velvetleaf: 1
[1]; [21]
  Plant response rating, Velvetleaf: 0
[2]; Rate 62 g/ha, Postemergence
  Plant response rating, Nutsedge: 0
[2]; Rate 62 g/ha, Preemergence
  Nutsedge plant response rating: 0
[2]; Rate 125 g/ha, Postemergence
  Nutsedge plant response rating: 0
[2]; Rate 125 g/ha, Preemergence
  Nutsedge plant response rating: 0
[2]; Rate 250 g/ha, Postemergence
  Plant response rating, Nutsedge: 0
[2]; [21]
  Plant response rating, Nutsedge: 0
[3]; Rate 62 g/ha, Postemergence
  Plant response rating, Giant foxtail: 0
[3]; Rate 62 g/ha, Preemergence
  Giant foxtail plant response rating: 0
[3]; Rate 125 g/ha, Postemergence
  Giant foxtail plant response rating: 1
[3]; Rate 125 g/ha, Preemergence
  Giant foxtail plant response rating: 0
[3]; Rate 250 g/ha, Postemergence
  Plant response rating, Giant foxtail: 1
[3]; [21]
  Plant response rating, Giant foxtail: 0
[4]; Rate 62 g/ha, Postemergence
  Plant response rating, Blackgrass: 1
[4]; Rate 62 g/ha
  Blackgrass plant response rating: 0
[4]; Rate 125 g/ha, Postemergence
  Plant response rating, Blackgrass: 1
[4]; Rate 125 g/ha
  Blackgrass plant response rating: 0
[4]; Rate 250 g/ha, Postemergence
  Plant response rating, Blackgrass: 1
[4]; [21]
  Plant response rating, Blackgrass: 0
[5]; Rate 62 g/ha, Postemergence
  Wheat plant response rating: 0
[5]; Rate 62 g/ha, Preemergence
  Wheat plant response rating: 0
[5]; Rate 125 g/ha, Postemergence
  Wheat plant response rating: 1
[5]; Rate 125 g/ha, Preemergence
  Plant response rating, Wheat: 0
[5]; Rate 250 g/ha, Postemergence
  Plant response rating, Wheat: 1
[5]; [21]
  Plant response rating, Wheat: 0
[6]; Rate 62 g/ha, Postemergence
  Plant response rating, Corn: 1
[6]; Rate 62 g/ha
  Corn plant response rating: 0
[6]; Rate 125 g/ha, Postemergence
  Plant response rating, Corn: 1
[6]; Rate 125 g/ha
  Corn plant response rating: 0
[6]; Rate 250 g/ha, Postemergence
  Plant response rating, Corn: 1
[6]; [21]
  Plant response rating, Corn: 0
[7]; Rate 62 g/ha, Postemergence
  Plant response rating, Sugarbeets: 7
[7]; Rate 62 g/ha, Preemergence
  Sugarbeets plant response rating: 0
[7]; Rate 125 g/ha, Postemergence
  Sugarbeets plant response rating: 9
[7]; Rate 125 g/ha, Preemergence
  Plant response rating, Sugarbeets: 0
[7]; Rate 250 g/ha, Postemergence
  Plant response rating, Sugarbeets: 10
[7]; [21]
  Plant response rating, Sugarbeets: 0
[8]; Rate 62 g/ha, Postemergence
  Plant response rating, Bedstraw: 3
[8]; Rate 62 g/ha
  Bedstraw plant response rating: 0
[8]; Rate 125 g/ha, Postemergence
  Plant response rating, Bedstraw: 3
[8]; Rate 125 g/ha
  Bedstraw plant response rating: 0
[8]; Rate 250 g/ha, Postemergence
  Plant response rating, Bedstraw: 4
[8]; [21]
  Plant response rating, Bedstraw: 0
[9]; Rate 62 g/ha, Postemergence
  Plant response rating, B. signalgrass: 1
[9]; Rate 62 g/ha
  B. signalgrass plant response rating: 0
[9]; Rate 125 g/ha, Postemergence
  Plant response rating, B. signalgrass: 1
[9]; Rate 125 g/ha
  B. signalgrass plant response rating: 0
[9]; Rate 250 g/ha, Postemergence
  Plant response rating, B. signalgrass: 1
[9]; Rate 250 g/ha, Postemergence as printed in head r139 (second section for compounds 26-50)
  Plant response rating, B. signalgrass: 0
[10]; Rate 62 g/ha, Postemergence
  Plant response rating, Cocklebur: 2
[10]; Rate 62 g/ha
  Cocklebur plant response rating: 0
[10]; Rate 125 g/ha, Postemergence
  Plant response rating, Cocklebur: 2
[10]; Rate 125 g/ha
  Cocklebur plant response rating: 0
[10]; Rate 250 g/ha, Postemergence
  Plant response rating, Cocklebur: 5
[10]; [21]
  Plant response rating, Cocklebur: 0
[11]; Rate 62 g/ha, Postemergence
  Plant response rating, Rape: 1
[11]; Rate 62 g/ha, Preemergence
  Rape plant response rating: 0
[11]; Rate 125 g/ha, Postemergence
  Rape plant response rating: 1
[11]; Rate 125 g/ha, Preemergence
  Rape plant response rating: 0
[11]; Rate 250 g/ha, Postemergence
  Plant response rating, Rape: 4
[11]; [21]
  Plant response rating, Rape: 0
[12]; Rate 62 g/ha, Postemergence
  Wild oats plant response rating: 1
[12]; Rate 62 g/ha, Preemergence
  Wild oats plant response rating: 0
[12]; Rate 125 g/ha, Postemergence
  Wild oats plant response rating: 1
[12]; Rate 125 g/ha, Preemergence
  Plant response rating, Wild oats: 0
[12]; Rate 250 g/ha, Postemergence
  Plant response rating, Wild oats: 1
[12]; [21]
  Plant response rating, Wild oats: 0
[13]; Rate 62 g/ha, Postemergence
  Plant response rating, Crabgrass: 0
[13]; Rate 62 g/ha
  Crabgrass plant response rating: 0
[13]; Rate 125 g/ha, Postemergence
  Plant response rating, Crabgrass: 0
[13]; Rate 125 g/ha
  Crabgrass plant response rating: 0
[13]; Rate 250 g/ha, Postemergence
  Plant response rating, Crabgrass: 1
[13]; [21]
  Plant response rating, Crabgrass: 0
[14]; Rate 62 g/ha, Postemergence
  Plant response rating, Redroot pigweed: 2
[14]; Rate 62 g/ha, Preemergence
  Redroot pigweed plant response rating: 0
[14]; Rate 125 g/ha, Postemergence
  Redroot pigweed plant response rating: 2
[14]; Rate 125 g/ha, Preemergence
  Redroot pigweed plant response rating: 0
[14]; Rate 250 g/ha, Postemergence
  Plant response rating, Redroot pigweed: 3
[14]; [21]
  Plant response rating, Redroot pigweed: 0
[15]; Rate 62 g/ha, Postemergence
  Plant response rating, Morningglory: 1
[15]; Rate 62 g/ha, Preemergence
  Morningglory plant response rating: 0
[15]; Rate 125 g/ha, Postemergence
  Morningglory plant response rating: 1
[15]; Rate 125 g/ha, Preemergence
  Morningglory plant response rating: 0
[15]; Rate 250 g/ha, Postemergence
  Plant response rating, Morningglory: 1
[15]; [21]
  Plant response rating, Morningglory: 0
[16]; Rate 62 g/ha, Postemergence
  Plant response rating, Soybean: 1
[16]; Rate 62 g/ha, Preemergence
  Soybean plant response rating: 0
[16]; Rate 125 g/ha, Postemergence
  Soybean plant response rating: 1
[16]; Rate 125 g/ha, Preemergence
  Plant response rating, Soybean: 0
[16]; Rate 250 g/ha, Postemergence
  Plant response rating, Soybean: 2
[16]; [21]
  Plant response rating, Soybean: 0
[17]; [22]
  Plant response rating, Barnyardgrass: 0
[17]; [23]
  Plant response rating, Barnyardgrass: 0
[17]; [24]
  Plant response rating, Barnyardgrass: 0
[18]; [22]
  Plant response rating, Ducksalad: 0
[18]; [23]
  Plant response rating, Ducksalad: 0
[18]; [24]
  Plant response rating, Ducksalad: 0
[19]; [22]
  Plant response rating, S. Flatsedge: 0
[19]; [25]
  S. Flatsedge plant response rating: 2
[19]; [24]
  Plant response rating, S. Flatsedge: 2
[20]; [22]
  Plant response rating, Rice: 0
[20]; [25]
  Rice plant response rating: 0
[20]; [24]
  Plant response rating, Rice: 0
